The record followed here is patent US9308239B2, “Methods and compositions for treatment of retinoid-responsive conditions” (The Penn State Research Foundation, priority 2008, dated 2016).

Several values for one entry are separate records, joined by “and”; a condition that tells them apart may be missing. Identical values can stand only once. Some results are limits rather than exact numbers.

In assay [1] the test system is NGAL. Put plainly: Immunoblot for NGAL in SEB-1 sebocytes after poly (I:C). To be noted: SEB-1, 20 μg/mL, 48 hrs. It counts as cell-based, human. In general terms: Immunoblotting shows a protein as a band on a membrane.
The test system of assay [2] is NGAL. Put plainly: Western blot of NGAL protein in SEB-1 sebocytes after retinoid treatment. To be noted: 72 hours, 0.1 nM to 1 μM, maximum with micromolar concentrations. It is filed as cell-based, human. An excerpt: For Western blotting, mouse monoclonal antibody to lipocalin 2 (NGAL) was obtained from Abeam, Inc., (Cambridge, Mass.). The 24p3R(NGAL receptor) affinity purified antibody, positive (HEK 293 cell lysate) and negative (T47D cell lysate) controls were kindly provided by Dr. Michael Green (University of Massachusetts Medical School). GAPDH (#2118), Cleaved caspase 3 (#9664), β-actin (#4967) and anti-rabbit horseradish peroxidase (HRP) linked secondary antibodies (#7074) were purchased from Cell Signaling Technology (Beverly, Mass.). Secondary Anti-mouse HRP antibody was purchased from Santa Cruz Biotechnology Inc. (Santa Cruz, Calif.).
SEB-1 sebocytes (passages 22-28) were in standard culture medium until 50-75% confluent. Treatments of 13-cis RA (0.1 nM, 1 nM, 10 nM, 0.1 μM, or 1 μM) or ethanol vehicle (0.01% or less) were applied for 48 or 72 hours. In parallel studies, identical concentrations of all-trans retinoic acid (ATRA) were applied for 72 hours. In all experiments, each plate was considered an independent sample and total protein was collected. Blots were incubated with appropriate primary and secondary antibodies followed by densitometry. […] Data was analyzed using a paired t-test and results were considered significant if p<0.05.
Protein expression was verified by western blot at 72 hours of retinoid treatment. […] Blots were analyzed by densitometry and normalized to β-actin. […]

Assay [3] has as its system sebaceous glands. Put plainly: TUNEL-peroxidase assay on patient skin biopsies. It is filed as in vivo, human.
For assay [4], the system named is LCN2 mRNA. Put plainly: QPCR of LCN2 mRNA in SEB-1 sebocytes after retinoid treatment. It is filed as cell-based, human. As to conditions: 48 hours. On the procedure: Applied Biosystems' Assays-on-Demand Taqman Universal PCR Master Mix, primer/probe sets, and ABI's 7900HT Fast Real-Time PCR System with 384-well plate block module were used according to manufacturer's instructions (Applied Biosystems, Foster City, Calif.). Integrity of isolated RNA was verified by agarose gel electrophoresis. cDNA was generated from 1 μg of total RNA, primed with oligo-dT, using the Superscript First-Strand Synthesis System for RT-PCR (Invitrogen, Carlsbad, Calif.). Diluted cDNA from the one week samples were run for the reference gene TATA binding protein (TBP) and genes of interest: lipocalin 2, (LCN2) RARRES1, S100A7, SERPINA3 and PLA2G7. For gene array verification, 8 independent samples of SEB-1 sebocytes treated with 0.1 μM 13-cis RA or vehicle alone for 72 hours were analyzed. Genes of interest included: LCN2, RARRES1, insulin-like growth factor binding protein 3 (IGFBP-3), GATA3, ZBTB16 and potential LCN2 cell surface receptor (SLC22A17). Expression of TBP, GAPDH and LCN2 was analyzed in 6 independent SEB-1 samples for the siRNA knockdown experiments. SEB-1 sebocytes treated with increasing concentrations of ATRA (n=5) were analyzed for the reference gene, TBP, and LCN2. […] Data was analyzed using the Relative Expression Software Tool (REST-XL version 1) software program (64) with efficiency correction and a p-value <0.05 was considered significant. […]

Assay [5] concerns sebaceous glands. Put plainly: Histology: sebaceous gland area in patient skin biopsies (H&E, image analysis). It counts as in vivo, human. To be noted: one week samples, mean±SEM; baseline 0.23±0.09; not significant (p=0.16).
Assay [6] concerns NGAL. Nature of the assay: NGAL immunohistochemistry on patient skin sections. It is filed as in vivo, human. To be noted: individual patients 1-6 and average, after one week isotretinoin therapy. The protocol:
All sections were counterstained with hematoxylin. […] NC-negative control, consists of a normal human skin incubated with normal mouse IgG1 antibody.

In assay [7] the test system is SEB-1 sebocytes. Put plainly: TUNEL assay in SEB-1 sebocytes. It is filed as cell-based, human. As to conditions: 24 hours, 1 ng/mL.
The subject of assay [8] is P. acnes bacteria. Nature of the assay: P. acnes percent survival after rhNGAL treatment. As to conditions: 1-25 μg/mL, 4 hours, percent survival relative to vehicle.

“Polyinosinic:polycytidylic acid [Poly (I:C)]”: the “NGAL expression in total cell lysate” value in assay [1] is listed as “increases”.
Turning to `CC1=C(/C=C/C(C)=C/C=C/C(C)=C/C(=O)O)C(C)(C)CCC1` [ATRA, all-trans retinoic acid], the “NGAL protein expression increase compared to control (maximum)” value in assay [2] came to 7 fold.
Take `CC1=C(/C=C/C(C)=C/C=C/C(C)=C\C(=O)O)C(C)(C)CCC1` [isotretinoin, 13-cis retinoic acid]: the “increase in the percentage of TUNEL positive cells vs baseline” value in assay [3] (one week of therapy compared to baseline) amounted to 4 fold. In addition, in assay [3] (one week of therapy, mean±SD, n=6 patients, baseline 13.9±6%, p=0.005), the “percentage of TUNEL positive cells within the sebaceous gland” value amounted to 45.9±11.9%. Further, the “concentrations that significantly increased LCN2 mRNA levels” value in assay [4] is given as no less than 1 nM. Further, in assay [4] (micromolar concentrations), the “increase of LCN2 mRNA levels compared to control” value is reported as “approximately 6 fold”. Moreover, in assay [5], the “mean area of sebaceous glands” value was 0.12±0.02 mm^2. Besides, the “1-week (% of sebaceous gland positive for NGAL)” value in assay [6] is 27.1% and 1.1% and 12.1% and 1.0% and 36.7% and 11.3%.

B1: rhNGAL: purified recombinant human NGAL protein (amino acids 21-198, R&D Systems); in Example 14 rhNGAL produced in E. coli (protein)
chain: QDSTSDLIPAPPLSKVPLQQNFQDNQFQGKWYVVGLAGNAILREDKDPQKMYATIYELKEDKSYNVTSVLFRKKKCDYWIRTFVPGCQPGEFTLGNIKSYPGLTSYLVRVVSTNYNQHAMVFFKKVSQNREYFKITLYGRTKELTSELKENFIRFSKSLGLPENHIVFPVPIDQCIDG
modifications: human
For B1, the “percentage of TUNEL positive cells (maximum)” value in assay [7] was “approximately 35%”. Also, in assay [8], the “effect on P. acnes bacteria (FIG. 11)” value was “inhibitory effects”.
